Where two headings read alike, the source gives them in different places.
Tests used:
TsPYK [1] = target: T1, TsPYK (Thermoanaerobacterium saccharolyticum, UniProt I3VV25); assay: Kapp–PEP versus effector concentration, lactate dehydrogenase coupled assay; assay type: biochemical; conditions: 10 mM ADP, 15 mM MgCl2, 30 °C
T1 construct: gene Tsac_1363; full length with extra-C domain; N-terminal 6XHis tag kept (6XHis-MBP-SUMO tag in later expression); expressed in E. coli FF50 / QTF60 (pykA pykF deleted); homotetramer
T1 sequence (I3VV25 1-583): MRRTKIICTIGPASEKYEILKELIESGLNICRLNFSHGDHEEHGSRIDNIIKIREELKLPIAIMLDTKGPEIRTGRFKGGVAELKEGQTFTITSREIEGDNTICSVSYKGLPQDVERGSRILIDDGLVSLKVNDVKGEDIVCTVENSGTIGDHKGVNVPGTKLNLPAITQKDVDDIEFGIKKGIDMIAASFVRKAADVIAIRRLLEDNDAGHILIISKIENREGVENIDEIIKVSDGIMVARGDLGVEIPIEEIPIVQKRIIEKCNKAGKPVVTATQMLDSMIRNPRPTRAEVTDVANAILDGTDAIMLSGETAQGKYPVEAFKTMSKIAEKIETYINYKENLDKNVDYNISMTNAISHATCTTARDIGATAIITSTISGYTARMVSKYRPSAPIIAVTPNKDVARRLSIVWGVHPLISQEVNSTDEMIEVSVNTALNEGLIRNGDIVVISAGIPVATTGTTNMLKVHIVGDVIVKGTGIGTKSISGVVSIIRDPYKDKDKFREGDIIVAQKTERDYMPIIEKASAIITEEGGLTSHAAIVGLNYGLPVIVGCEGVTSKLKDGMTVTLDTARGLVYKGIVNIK

C. bescii PYK [2] = target: T2, C. bescii PYK (Caldicellulosiruptor bescii, UniProt A0ABY1S964); assay: as above; assay type: biochemical; conditions: allosteric activator; 10 mM ADP, 15 mM MgCl2, 30 °C
T2 construct: gene SAMN05216240_1829; full length with extra-C domain; N-terminal 6XHis-MBP-SUMO tag kept; expressed in E. coli QTF60
T2 sequence (A0ABY1S964 entry or part of it): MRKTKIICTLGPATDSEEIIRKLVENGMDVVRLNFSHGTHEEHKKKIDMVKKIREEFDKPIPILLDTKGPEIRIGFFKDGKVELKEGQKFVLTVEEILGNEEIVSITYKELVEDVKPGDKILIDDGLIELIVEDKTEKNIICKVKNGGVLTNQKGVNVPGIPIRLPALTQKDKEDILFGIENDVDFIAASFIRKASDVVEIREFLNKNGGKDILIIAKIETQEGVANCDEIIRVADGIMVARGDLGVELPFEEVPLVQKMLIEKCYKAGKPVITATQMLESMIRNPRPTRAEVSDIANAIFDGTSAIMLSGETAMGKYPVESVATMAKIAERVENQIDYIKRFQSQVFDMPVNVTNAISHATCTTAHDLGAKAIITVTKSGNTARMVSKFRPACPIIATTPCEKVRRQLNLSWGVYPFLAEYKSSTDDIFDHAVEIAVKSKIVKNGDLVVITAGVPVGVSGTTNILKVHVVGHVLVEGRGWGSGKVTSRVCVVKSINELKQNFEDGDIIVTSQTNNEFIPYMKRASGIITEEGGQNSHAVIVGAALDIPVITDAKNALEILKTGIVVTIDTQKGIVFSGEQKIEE

E. coli Type A [3] = target: T3, E. coli Type A (Escherichia coli, UniProt P21599); assay: as above; assay type: biochemical; conditions: allosteric activator; 10 mM ADP, 15 mM MgCl2, 30 °C
T3 construct: gene pykA; full length; no extra-C domain; N-terminal 6XHis-MBP-SUMO tag kept; expressed in E. coli QTF60
T3 sequence (P21599 whole entry): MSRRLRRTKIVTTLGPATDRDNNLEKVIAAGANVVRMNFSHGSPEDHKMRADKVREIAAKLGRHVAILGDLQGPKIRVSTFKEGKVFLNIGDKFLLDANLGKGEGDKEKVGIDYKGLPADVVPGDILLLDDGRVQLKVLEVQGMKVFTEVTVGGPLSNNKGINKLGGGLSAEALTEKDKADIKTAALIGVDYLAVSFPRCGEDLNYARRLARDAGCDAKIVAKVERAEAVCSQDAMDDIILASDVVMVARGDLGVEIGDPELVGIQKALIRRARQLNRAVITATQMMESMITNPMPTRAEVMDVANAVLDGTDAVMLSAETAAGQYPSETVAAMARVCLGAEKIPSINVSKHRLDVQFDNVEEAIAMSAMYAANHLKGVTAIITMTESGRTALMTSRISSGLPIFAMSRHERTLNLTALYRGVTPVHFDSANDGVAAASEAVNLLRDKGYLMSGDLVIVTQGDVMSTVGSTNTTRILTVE

TsPYK [4] = target: T1, TsPYK; assay: Kapp–PEP versus effector concentration, lactate dehydrogenase coupled assay, linkage fit; assay type: biochemical; conditions: Kix in absence of PEP, 10 mM ADP, 15 mM MgCl2, 30 °C
Text: Kapp–PEP versus effector concentration, lactate dehydrogenase coupled assay, linkage fit on TsPYK

[5] = target: T4, TsPYK extra-C domain truncated (Thermoanaerobacterium saccharolyticum, UniProt I3VV25); assay: Kapp–PEP versus effector concentration, lactate dehydrogenase coupled assay; assay type: biochemical; conditions: allosteric activator; 10 mM ADP, 15 mM MgCl2, 30 °C
T4 construct: gene Tsac_1363; N-terminal 6XHis-MBP-SUMO tag kept; expressed in E. coli QTF60

E. coli Type A [6] = target: T3, E. coli Type A; assay: lactate dehydrogenase coupled NADH assay, A340, Hill fit; assay type: biochemical; conditions: 10 mM ADP, 15 mM MgCl2, 30 °C; no effector
E. coli Type F = target: T5, E. coli Type F (Escherichia coli, UniProt P0AD61); assay: as above; assay type: biochemical; conditions: 10 mM ADP, 15 mM MgCl2, 30 °C; no effector
T5 construct: gene pykF; full length; no extra-C domain; N-terminal 6XHis-MBP-SUMO tag kept; expressed in E. coli QTF60
T5 sequence (P0AD61 whole entry): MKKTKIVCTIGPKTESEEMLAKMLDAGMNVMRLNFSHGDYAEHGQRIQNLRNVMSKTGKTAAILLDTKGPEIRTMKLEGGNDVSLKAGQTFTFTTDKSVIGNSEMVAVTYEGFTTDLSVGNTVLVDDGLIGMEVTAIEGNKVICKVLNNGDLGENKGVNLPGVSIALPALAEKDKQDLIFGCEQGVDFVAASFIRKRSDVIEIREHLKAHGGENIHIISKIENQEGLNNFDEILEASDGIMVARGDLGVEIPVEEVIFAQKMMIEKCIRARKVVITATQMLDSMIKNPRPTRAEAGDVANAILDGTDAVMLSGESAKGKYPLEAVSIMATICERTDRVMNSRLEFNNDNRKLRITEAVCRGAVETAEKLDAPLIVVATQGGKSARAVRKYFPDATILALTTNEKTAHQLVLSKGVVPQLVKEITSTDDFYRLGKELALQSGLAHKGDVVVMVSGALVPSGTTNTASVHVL

C. bescii PYK [7] = target: T2, C. bescii PYK; assay: as above; assay type: biochemical; conditions: 10 mM ADP, 15 mM MgCl2, 30 °C; no effector
[8] = target: T4, TsPYK extra-C domain truncated; assay: as above; assay type: biochemical; conditions: 10 mM ADP, 15 mM MgCl2, 30 °C; no effector
[9] = substrate: C=C(OP(=O)(O)O)C(=O)O; assay: as above; assay type: biochemical, Thermoanaerobacterium saccharolyticum; conditions: 10 mM ADP, 15 mM MgCl2, 195 mM K+, 80 mM Na+, 50 mM HEPES, 30 °C, no effector, ± sign lost in table text
Text: lactate dehydrogenase coupled NADH assay, A340, Hill fit on TsPYK

In the case of Nc1ncnc2c1ncn2[C@H]1C[C@H](O)[C@@H](COP(=O)(O)O)O1 [2-deoxyadenonsine-5′MP], the Kapp-PEP shift (TsPYK [1]; allosteric activator) is reported as “generated a response very similar to AMP (slightly reduced binding)”.

With Nc1ncnc2c1ncn2[C@@H]1O[C@H](COP(=O)(O)O)[C@@H](O)[C@H]1O [AMP] the Kapp-PEP shift (C. bescii PYK [2]) was “the isozyme from C. bescii were inhibited by IMP and activated by AMP”, the Kapp-PEP shift (E. coli Type A [3]) was “the E. coli type A isozyme was activated by both AMP and IMP” and the Kd (TsPYK [4]; allosteric activator, ± sign lost in table text, read-out: Kix-AMP) was 90 ± 60 µM. For the same molecule, the Kapp-PEP shift [5] was “Activation by AMP was not influenced by the removal of the extra-C domain”.

Work on Nc1nc2c(ncn2[C@@H]2O[C@H](COP(=O)(O)O)[C@@H](O)[C@H]2O)c(=O)[nH]1 [GMP] yielded a Kd (TsPYK [4]; allosteric inhibitor, ± sign lost in table text (printed 11), read-out: Kix-GMP) of 1000 ± 1000 µM.

For C=C(OP(=O)(O)O)C(=O)O [PEP], the Kapp-PEP (E. coli Type A [6]) was “The response of three bacterial PYK isozymes to AMP and IMP”, the Kapp-PEP (E. coli Type F) was “The response of three bacterial PYK isozymes to AMP and IMP” and the Kapp-PEP (C. bescii PYK [7]) was “The response of three bacterial PYK isozymes to AMP and IMP”. For the same molecule, the Kapp-PEP [8] was “A comparison of responses to IMP and AMP for the full length TsPYK”.

Work on O=P(O)(O)OC[C@H]1OC(O)[C@H](O)[C@@H]1O (some centres unmarked) [R5P] yielded a Kd (TsPYK [4]; allosteric activator, ± sign lost in table text (printed 1110), read-out: Kix-R5P) of 11000 ± 10000 µM.

For O=P(O)(O)OC[C@H]1OC(O)(CO)[C@@H](O)[C@@H]1O (some centres unmarked) [fructose-6-phosphate], the Kapp-PEP shift (TsPYK [1]; allosteric inhibitor) was “glyceraldehyde 3-phosphate, fructose-6-phosphate, IMP or GMP all caused reduced affinity for PEP”.

In the case of O=C[C@H](O)COP(=O)(O)O [glyceraldehyde 3-phosphate], the Kapp-PEP shift (TsPYK [1]; allosteric inhibitor) is reported as “glyceraldehyde 3-phosphate, fructose-6-phosphate, IMP or GMP all caused reduced affinity for PEP”.

B1: TsPYK (Thermoanaerobacterium saccharolyticum JW/SL-YS485) (protein)
chain: MRRTKIICTIGPASEKYEILKELIESGLNICRLNFSHGDHEEHGSRIDNIIKIREELKLPIAIMLDTKGPEIRTGRFKGGVAELKEGQTFTITSREIEGDNTICSVSYKGLPQDVERGSRILIDDGLVSLKVNDVKGEDIVCTVENSGTIGDHKGVNVPGTKLNLPAITQKDVDDIEFGIKKGIDMIAASFVRKAADVIAIRRLLEDNDAGHILIISKIENREGVENIDEIIKVSDGIMVARGDLGVEIPIEEIPIVQKRIIEKCNKAGKPVVTATQMLDSMIRNPRPTRAEVTDVANAILDGTDAIMLSGETAQGKYPVEAFKTMSKIAEKIETYINYKENLDKNVDYNISMTNAISHATCTTARDIGATAIITSTISGYTARMVSKYRPSAPIIAVTPNKDVARRLSIVWGVHPLISQEVNSTDEMIEVSVNTALNEGLIRNGDIVVISAGIPVATTGTTNMLKVHIVGDVIVKGTGIGTKSISGVVSIIRDPYKDKDKFREGDIIVAQKTERDYMPIIEKASAIITEEGGLTSHAAIVGLNYGLPVIVGCEGVTSKLKDGMTVTLDTARGLVYKGIVNIK
notes: full length with extra-C domain; N-terminal 6XHis tag kept (6XHis-MBP-SUMO tag in later expression); expressed in E. coli FF50 / QTF60 (pykA pykF deleted); homotetramer
B1 was tested, and the K0.5 [9] was 0.63 ± 0.03 mM.
